Measured values published in patent publication US12458621B1, “Application of genipin beta-methyl derivative gen-17 in preparation of drug for prevention and treatment of acute severe pneumonia” (KUNMING MEDICAL UNIVERSITY, priority 2024, dated 2025).

Assays:
Type in all cases: in vivo, Kunming mice
[1] = test system: ERK phosphorylated protein; test: ERK phosphorylated protein in lung tissue by WB
Description: (§1) A total of 144 SPF-grade healthy Kunming mice, aged 5-7 weeks and weighing 18-22 g, are weighed and randomly allocated into six experimental groups: control group (NS), model group (LPS), dexamethasone group (DEX, […] per kilogram abbreviated as mg/kg), genipin beta-methyl derivative low-dose group (12.5 mg/kg), genipin beta-methyl derivative medium-dose group (25 mg/kg), and genipin beta-methyl derivative high-dose group (50 mg/kg), 24 animals per group, in which 12 animals are used to take lung tissue for the detection of other indicators, and another 12 animals are used to collect BALF. […]
(§2) Samples are collected 24 hours after the animal model is established. […] Lung tissues are collected and the whole lung wet weight is measured. […] After tidying, the lungs are photographed, excess tissues such as the trachea are cleared away, and the wet weight of the whole lung is measured to calculate the lung index. • (3) The upper lobe of the left lung is fixed in 4% neutral paraformaldehyde, fixed for 24 hours, paraffin-embedded and sectioned for HE staining. • (4) The remaining lung tissues are put into centrifugal tubes separately, quickly frozen in liquid nitrogen, and then stored at −80° C. after the experiment, which is used for the detection of MDA, SOD, western blotting (WB) and reverse transcription polymerase chain reaction (RT-PCR). […]

[2] = test system: SOD; test: SOD activity in lung tissue; settings: compared with LPS group
Description: The dosage is converted according to the weight of the mice, and the gavage volume is 20 milliliters per kilogram (mL/kg), and the gavage is continued for 3 days. One hour after the gavage on the third day, the ALI model is established by tracheal instillation of LPS solution. […] After the mice are awake, they are raised as usual. 2.3 Treatment of Experimental Animals and Collection of Lung Tissue Specimens
Samples are collected 24 hours after the animal model is established. The mice are weighed and 12 mice in each group are sacrificed. Lung tissues are collected and the whole lung wet weight is measured. […] After tidying, the lungs are photographed, excess tissues such as the trachea are cleared away, and the wet weight of the whole lung is measured to calculate the lung index. • (3) The upper lobe of the left lung is fixed in 4% neutral paraformaldehyde, fixed for 24 hours, paraffin-embedded and sectioned for HE staining. • (4) The remaining lung tissues are put into centrifugal tubes separately, quickly frozen in liquid nitrogen, and then stored at −80° C. after the experiment, which is used for the detection of MDA, SOD, western blotting (WB) and reverse transcription polymerase chain reaction (RT-PCR). […]
The lung tissue is taken out from −80° C., and its weight is accurately measured.

[3] = test system: TNF-α; test: TNF-α mRNA in lung tissue by qRT-PCR
Description: as §1, §2

[4] = test system: p38 phosphorylated protein; test: p38 phosphorylated protein in lung tissue by WB
Description: (§3) A total of 144 SPF-grade healthy Kunming mice, aged 5-7 weeks and weighing 18-22 g, are weighed and randomly allocated into six experimental groups: control group (NS), model group (LPS), dexamethasone group (DEX, […] per kilogram abbreviated as mg/kg), genipin beta-methyl derivative low-dose group (12.5 mg/kg), genipin beta-methyl derivative medium-dose group (25 mg/kg), and genipin beta-methyl derivative high-dose group (50 mg/kg), 24 animals per group, in which 12 animals are used to take lung tissue for the detection of other indicators, and another 12 animals are used to collect BALF.
(§4) All mice are gavaged with a same volume of 0.9% normal saline once a day in the NS group and the LPS group, DEX solution (0.39 mg/kg) is gavaged once a day in the DEX group, low-dose Gen-17 solution (12.5 mg/kg) is gavaged once a day in the medium-dose Gen-17 group, medium-dose Gen-17 solution (25 mg/kg) is gavaged once a day in the high-dose Gen-17 group, and high-dose Gen-17 solution (50 mg/kg) is gavaged once a day in the high-dose Gen-17 group. The dosage is converted according to the weight of the mice, and the gavage volume is 20 milliliters per kilogram (mL/kg), and the gavage is continued for 3 days. […]
as §2
The lung tissue is taken out from −80° C., and its weight is accurately measured. […]

[5] = test system: TNF-α; test: TNF-α content in BALF by ELISA
Description: as §3
as §4, with “days. One hour after the gavage on the third day, the ALI model is established by tracheal instillation of LPS solution.” for “days.”

[6] = test system: iNOS; test: iNOS mRNA in lung tissue by qRT-PCR; settings: Gen-17 (12.5, 25, 50 mg/kg gavage) compared with LPS group (P<0.001)
Description: as §1, §2

[7] = test system: IL-6; test: IL-6 content in BALF by ELISA
Description: as §3
as §4, with “days. One hour after the gavage on the third day, the ALI model is established by tracheal instillation of LPS solution.” for “days.”

[8] = test system: IkB-α; test: IkB-α mRNA in lung tissue by qRT-PCR; settings: Gen-17 (12.5, 25, 50 mg/kg gavage) compared with LPS group (P<0.001)
Description: as §1, §2

[9] = after drug treatment, compared with LPS group
[10] = Gen-17 groups (12.5, 25, 50 mg/kg gavage) compared with LPS group

Q: For `COC(=O)C1=CO[C@@H](OC)[C@@H]2C(COC(=O)c3cccc(Br)c3)=CC[C@H]12` [Gen-17, genipin beta-methyl derivative], which “expression of ERK phosphorylated protein in lung tissue” value [1, 9] is on record?
A: The value was “down-regulate the expression of p38, ERK and JNK proteins”.

Q: What about the “expression of ERK phosphorylated protein in lung tissue” value ([1]; low-dose Gen-17 12.5 mg/kg gavage, compared with DEX group) of the same compound?
A: The value was “statistically significant (P<0.05)”.

Q: What about the “SOD activity in lung tissue” value ([2]; after drug treatment) of the same compound?
A: The value was “significantly increase the SOD activity”.

Q: And the “SOD activity in lung tissue (increase)” value ([2]; high-dose Gen-17 50 mg/kg gavage)?
A: The value was “statistical significance (P<0.05)”.

Q: What about the “mRNA expression of TNF-α in lung tissue” value ([3]; Gen-17 (12.5, 25, 50 mg/kg gavage) compared with LPS group (P<0.001)) of the same compound?
A: Its value is “significantly reduce the expression”.

Q: What about the “mRNA expression of TNF-α in lung tissue” value ([3]; low-dose Gen-17 12.5 mg/kg gavage, compared with DEX group (P<0.001)) of the same compound?
A: The value was “statistical significance”.

Q: And the “expression of phosphorylated protein p38 in lung tissue” value ([4]; Gen-17 groups (12.5, 25, 50 mg/kg gavage) compared with DEX group (P>0.05))?
A: The value was “no statistically significant change”.

Q: And the “expression of p38 phosphorylated protein in lung tissue” value [4, 9]?
A: The value was “down-regulate the expression of p38, ERK and JNK proteins”.

Q: What about the “expression of p38 phosphorylated protein in lung tissue, statistical significance of decrease” value ([4]; low-dose Gen-17 12.5 mg/kg gavage, compared with LPS group, excepted from significance (P<0.05)) of the same compound?
A: Its value is “except for the low-dose Gen-17 group”.

Q: And the “reduction of the TNF-α level in BALF” value ([5]; Gen-17 compared with DEX group (P>0.05))?
A: The value was “no statistically significant difference”.

Q: What about the “content of TNF-α in BALF” value [5, 10] of the same compound?
A: Its value is “reduce the contents of inflammatory cytokines”.

Q: And the “mRNA expression of iNOS in lung tissue” value [6]?
A: Its value is “significantly reduce the expression”.

Q: What about the “content of IL-6 in BALF” value [7, 10] of the same compound?
A: The value was “reduce the contents of inflammatory cytokines”.

Q: And the “IL-6 level in BALF” value ([7]; low-dose Gen-17 12.5 mg/kg gavage, compared with DEX group (P<0.01))?
A: The value was “statistically significant reduction”.

Q: What about the “mRNA expression of IkB-α in lung tissue” value [8] of the same compound?
A: The value was “significantly reduce the expression”.
